The values that follow come from ChEMBL document CHEMBL3860089, “Design, synthesis, and biological evaluation of α-hydroxyacyl-AMS inhibitors of amino acid adenylation enzymes” (Bioorg Med Chem Lett, 2016).

Series [1] is described as follows: Inhibition of aminoacyl tRNA synthetase in T7 coupled rabbit reticulocyte lysate assessed as reduction in transcription/translation of luciferase template DNA propagated in Escherichia coli DH5alpha after 90 mins. Further details: species or system Oryctolagus cuniculus.
For series [2], the target named is T1, Yersiniabactin biosynthetic protein (Yersinia pestis, UniProt A0A2S9PH42). The note with it: read-out: Ki(app).
Series [3] concerns the target T1, Yersiniabactin biosynthetic protein.
Series [4] in a line: Drug uptake in Escherichia coli ATCC 25922 at 100 uM by LC-MS/Ms analysis. The note with it: escherichia coli atcc 25922, 100 µM. It is filed as ADME.
The nature of series [5]: Drug uptake in Mycobacterium smegmatis ATCC 700084 at 100 uM by LC-MS/Ms analysis. In kind it is ADME. The note with it: mycolicibacterium smegmatis.
Series [6] in a line: Drug uptake in Bacillus subtilis ATCC 6051 at 100 uM by LC-MS/Ms analysis. It is filed as ADME.

T1 sequence (A0A2S9PH42 whole entry): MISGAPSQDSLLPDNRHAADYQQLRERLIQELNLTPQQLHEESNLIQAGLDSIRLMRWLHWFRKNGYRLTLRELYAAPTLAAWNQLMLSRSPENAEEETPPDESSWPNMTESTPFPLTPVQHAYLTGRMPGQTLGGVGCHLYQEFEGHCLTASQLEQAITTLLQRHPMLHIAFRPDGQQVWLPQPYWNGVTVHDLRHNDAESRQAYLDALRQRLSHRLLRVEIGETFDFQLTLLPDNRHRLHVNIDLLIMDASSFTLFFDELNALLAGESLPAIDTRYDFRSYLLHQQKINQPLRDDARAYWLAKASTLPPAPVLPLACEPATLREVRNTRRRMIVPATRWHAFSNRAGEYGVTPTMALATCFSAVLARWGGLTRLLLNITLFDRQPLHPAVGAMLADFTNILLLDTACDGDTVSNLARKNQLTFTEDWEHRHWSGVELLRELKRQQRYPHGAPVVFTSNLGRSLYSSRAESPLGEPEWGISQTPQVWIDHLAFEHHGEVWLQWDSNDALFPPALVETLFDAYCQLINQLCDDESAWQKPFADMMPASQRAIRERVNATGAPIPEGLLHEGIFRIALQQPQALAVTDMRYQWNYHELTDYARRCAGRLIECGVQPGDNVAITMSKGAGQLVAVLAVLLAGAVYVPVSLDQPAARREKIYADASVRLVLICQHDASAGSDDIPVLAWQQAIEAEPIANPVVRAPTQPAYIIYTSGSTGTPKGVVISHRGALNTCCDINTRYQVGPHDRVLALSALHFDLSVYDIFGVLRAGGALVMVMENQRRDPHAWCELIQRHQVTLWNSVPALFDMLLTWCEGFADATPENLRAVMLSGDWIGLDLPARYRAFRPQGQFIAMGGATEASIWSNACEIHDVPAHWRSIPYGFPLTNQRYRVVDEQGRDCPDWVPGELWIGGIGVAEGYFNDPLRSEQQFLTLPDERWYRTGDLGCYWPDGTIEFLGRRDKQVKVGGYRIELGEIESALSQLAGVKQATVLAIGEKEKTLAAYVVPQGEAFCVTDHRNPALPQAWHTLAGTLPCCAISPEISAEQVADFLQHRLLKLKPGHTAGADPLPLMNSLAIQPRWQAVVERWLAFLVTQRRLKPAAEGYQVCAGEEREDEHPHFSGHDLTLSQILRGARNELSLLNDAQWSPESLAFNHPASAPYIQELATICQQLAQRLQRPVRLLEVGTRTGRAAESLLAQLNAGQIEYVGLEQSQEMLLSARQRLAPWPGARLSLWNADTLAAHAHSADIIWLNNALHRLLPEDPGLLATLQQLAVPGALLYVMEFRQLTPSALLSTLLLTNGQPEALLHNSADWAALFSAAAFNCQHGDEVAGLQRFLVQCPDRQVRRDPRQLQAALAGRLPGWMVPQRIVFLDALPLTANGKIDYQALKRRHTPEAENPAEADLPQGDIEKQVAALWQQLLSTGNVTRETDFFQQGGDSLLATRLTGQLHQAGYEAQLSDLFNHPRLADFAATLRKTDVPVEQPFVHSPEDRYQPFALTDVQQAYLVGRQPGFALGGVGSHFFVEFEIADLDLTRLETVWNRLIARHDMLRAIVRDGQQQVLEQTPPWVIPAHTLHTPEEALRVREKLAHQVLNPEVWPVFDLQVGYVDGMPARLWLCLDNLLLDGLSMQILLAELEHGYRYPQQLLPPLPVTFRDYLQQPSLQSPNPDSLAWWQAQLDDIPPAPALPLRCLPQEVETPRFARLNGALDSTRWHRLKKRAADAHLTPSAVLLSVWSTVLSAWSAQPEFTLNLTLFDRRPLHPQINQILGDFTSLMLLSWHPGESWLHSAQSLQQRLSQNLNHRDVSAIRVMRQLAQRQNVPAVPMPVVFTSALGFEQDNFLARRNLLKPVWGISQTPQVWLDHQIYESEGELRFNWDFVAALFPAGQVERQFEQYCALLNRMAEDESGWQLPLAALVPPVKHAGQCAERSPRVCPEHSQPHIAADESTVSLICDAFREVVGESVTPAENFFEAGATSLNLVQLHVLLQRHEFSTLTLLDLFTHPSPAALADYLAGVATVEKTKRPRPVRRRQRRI

`Nc1ncnc2c1ncn2[C@@H]1O[C@H](COS(=O)(=O)NC(=O)[C@@H](N)CS)[C@@H](O)[C@H]1O`: the values for the IC50 in series [1] and in series [3] were 3.27 µM and 0.04 µM, respectively. Besides, the Ki in series [2] was 0.24 µM.

For the compound `C[C@H](O)C(=O)NS(=O)(=O)OC[C@H]1O[C@@H](n2cnc3c(N)ncnc32)[C@H](O)[C@@H]1O`, the Drug uptake in series [4], in series [5] and in series [6] was 28 to 53 µM each time. For the same compound, the results for the IC50 in series [1] and in series [3] were 166 µM and over 1000 µM, respectively.

On to `Nc1ncnc2c1nc1n2[C@@H]2O[C@H](COS(=O)(=O)NC(=O)[C@@H](N)CCC1)[C@@H](O)[C@H]2O`, for which the results for the 50% inhibitory concentration (IC50) in series [1] and in series [3] were over 250 µM and 0.34 µM, respectively. Further, the Ki in series [2] stood at 1.7 µM.

`Nc1ncnc2c1ncn2[C@@H]1O[C@H](COS(=O)(=O)NC(=O)[C@@H](O)CS)[C@@H](O)[C@H]1O`: the IC50 in series [1] is 222 µM; in series [3], 16.5 µM.

For `Nc1ncnc2c1nc1n2[C@@H]2O[C@H](COS(=O)(=O)NC(=O)[C@@H](O)CCC1)[C@@H](O)[C@H]2O`, the 50% inhibitory concentration (IC50) was over 250 µM in series [1] and over 1000 µM in series [3].

Turning to `C[C@H](N)C(=O)NS(=O)(=O)OC[C@H]1O[C@@H](n2cnc3c(N)ncnc32)[C@H](O)[C@@H]1O` [ALASA], the Drug uptake entry in series [4] (BLD = below limit of detection), in series [5] (BLD = below limit of detection) and in series [6] (BLD = below limit of detection) was “Bld” in each case. Moreover, the figures for the 50% inhibitory concentration (IC50) in series [1] and in series [3] were 0.118 to 0.16 µM and 1.15 µM, respectively. For the same compound, the Ki in series [2] worked out at 2.5 µM.

The IC50 is the point on the concentration scale where inhibition reaches its midpoint.
